Reference: patent EP0629633A2, “Dinucleotide analogues, intermediates therefor and oligonucleotides derived therefrom” (CIBA-GEIGY AG, priority 1993, dated 1994)

Tests used:
[1] = tested on: herpes simplex virus type 2(HSV-2) (strain HG52); assay: Antiviral plaque reduction assay, HSV-2; format: cell-based; settings: Human alphaherpesvirus 2; HSV-2, Vero cells, plaque numbers after 2 or 3 days
Procedure: (§1) Compound 34 is tested for antiviral activity against herpes simplex virus type 1(HSV-1) (strain 17i) and herpes simplex virus type 2(HSV-2) (strain HG52) in vitro. Aqueous solutions of the compounds are prepared at concentrations between 10mM and […]. The solutions are stored at -70°C after preparation and thawed prior to use in the antiviral assays. After thawing, the solutions are diluted to the appropriate concentration in the cell-culture medium without prior filtration.
(§2) In a procedure similar to that described by Tyms etal, J. Antimicrob. Chemother, 8,65-72 (1981), cell monolayers are infected with 20-200 plaque forming units and after virus adsorption the inoculum is replaced by maintenance medium containing different concentrations of the compound under investigation. Virus spread is prevented by the incorporation of 0.5% low gelling temperature agarose. At the end of a set period (2 or 3 days) monolayers are fixed, stained with methylene blue and plaque numbers determined.

[2] = tested on: herpes simplex virus type 1(HSV-1) (strain 17i); assay: Antiviral plaque reduction assay, HSV-1; format: cell-based; settings: Human alphaherpesvirus 1; HSV-1, Vero cells, plaque numbers after 2 or 3 days
Procedure: as §1, §2

## Cc1cn(C2CC(O)C(CCP(=O)(c3ccccc3)C(O)C3CC(n4cc(C)c(=O)[nH]c4=O)OC3CO[Si](c3ccccc3)(c3ccccc3)C(C)(C)C)O2)c(=O)[nH]c1=O (centres unmarked) [Compound 34]
[1]
  IC50: 3.8 µM
[2]
  IC50: 2.6 µM
